The source of these data is patent US20240299367A1, “METHODS OF TREATING ACUTE RESPIRATORY DISTRESS SYNDROME WITH ACTIVATORS OF TIE-2” (AERPIO PHARMACEUTICALS, INC., priority 2020, published 2024).

The IC50 is the point on the concentration scale where inhibition reaches its midpoint. A higher IC50 goes with a need for much substance.

Data set [1] has as its target HPTPβ (Homo sapiens (Human), UniProt P23467). The data set is described as follows: HPTPβ inhibitory activity (IC50). In kind it is biochemical.
Data set [2] relates to polymicrobial septic shock. Kind of data set: Cecal ligation and puncture (CLP) model of sepsis, survival. In kind it is in vivo, Sprague Dawley rats. Conditions: rats, SC BID days 1-5, monitored 10 days, Cpd 1 10 mg/kg, IM 20 mg/kg.
The subject of data set [3] is SARS-COV, MERS-COV, and SARS-CoV-2. The settings on record: cell culture and animal models; cited from earlier work.
The conditions of data set [4]: 0.9% saline, cited from earlier work.
A short description of data set [5]: Urine albumin/creatinine ratio (UACR) in Phase 2 and Phase 2b studies. Conditions: Phase 2, patients with evidence of diabetic nephropathy. In kind it is in vivo, human.

Read-outs that look alike come from different tables or passages of the source.

Chain of HPTPβ (P23467 23-1997): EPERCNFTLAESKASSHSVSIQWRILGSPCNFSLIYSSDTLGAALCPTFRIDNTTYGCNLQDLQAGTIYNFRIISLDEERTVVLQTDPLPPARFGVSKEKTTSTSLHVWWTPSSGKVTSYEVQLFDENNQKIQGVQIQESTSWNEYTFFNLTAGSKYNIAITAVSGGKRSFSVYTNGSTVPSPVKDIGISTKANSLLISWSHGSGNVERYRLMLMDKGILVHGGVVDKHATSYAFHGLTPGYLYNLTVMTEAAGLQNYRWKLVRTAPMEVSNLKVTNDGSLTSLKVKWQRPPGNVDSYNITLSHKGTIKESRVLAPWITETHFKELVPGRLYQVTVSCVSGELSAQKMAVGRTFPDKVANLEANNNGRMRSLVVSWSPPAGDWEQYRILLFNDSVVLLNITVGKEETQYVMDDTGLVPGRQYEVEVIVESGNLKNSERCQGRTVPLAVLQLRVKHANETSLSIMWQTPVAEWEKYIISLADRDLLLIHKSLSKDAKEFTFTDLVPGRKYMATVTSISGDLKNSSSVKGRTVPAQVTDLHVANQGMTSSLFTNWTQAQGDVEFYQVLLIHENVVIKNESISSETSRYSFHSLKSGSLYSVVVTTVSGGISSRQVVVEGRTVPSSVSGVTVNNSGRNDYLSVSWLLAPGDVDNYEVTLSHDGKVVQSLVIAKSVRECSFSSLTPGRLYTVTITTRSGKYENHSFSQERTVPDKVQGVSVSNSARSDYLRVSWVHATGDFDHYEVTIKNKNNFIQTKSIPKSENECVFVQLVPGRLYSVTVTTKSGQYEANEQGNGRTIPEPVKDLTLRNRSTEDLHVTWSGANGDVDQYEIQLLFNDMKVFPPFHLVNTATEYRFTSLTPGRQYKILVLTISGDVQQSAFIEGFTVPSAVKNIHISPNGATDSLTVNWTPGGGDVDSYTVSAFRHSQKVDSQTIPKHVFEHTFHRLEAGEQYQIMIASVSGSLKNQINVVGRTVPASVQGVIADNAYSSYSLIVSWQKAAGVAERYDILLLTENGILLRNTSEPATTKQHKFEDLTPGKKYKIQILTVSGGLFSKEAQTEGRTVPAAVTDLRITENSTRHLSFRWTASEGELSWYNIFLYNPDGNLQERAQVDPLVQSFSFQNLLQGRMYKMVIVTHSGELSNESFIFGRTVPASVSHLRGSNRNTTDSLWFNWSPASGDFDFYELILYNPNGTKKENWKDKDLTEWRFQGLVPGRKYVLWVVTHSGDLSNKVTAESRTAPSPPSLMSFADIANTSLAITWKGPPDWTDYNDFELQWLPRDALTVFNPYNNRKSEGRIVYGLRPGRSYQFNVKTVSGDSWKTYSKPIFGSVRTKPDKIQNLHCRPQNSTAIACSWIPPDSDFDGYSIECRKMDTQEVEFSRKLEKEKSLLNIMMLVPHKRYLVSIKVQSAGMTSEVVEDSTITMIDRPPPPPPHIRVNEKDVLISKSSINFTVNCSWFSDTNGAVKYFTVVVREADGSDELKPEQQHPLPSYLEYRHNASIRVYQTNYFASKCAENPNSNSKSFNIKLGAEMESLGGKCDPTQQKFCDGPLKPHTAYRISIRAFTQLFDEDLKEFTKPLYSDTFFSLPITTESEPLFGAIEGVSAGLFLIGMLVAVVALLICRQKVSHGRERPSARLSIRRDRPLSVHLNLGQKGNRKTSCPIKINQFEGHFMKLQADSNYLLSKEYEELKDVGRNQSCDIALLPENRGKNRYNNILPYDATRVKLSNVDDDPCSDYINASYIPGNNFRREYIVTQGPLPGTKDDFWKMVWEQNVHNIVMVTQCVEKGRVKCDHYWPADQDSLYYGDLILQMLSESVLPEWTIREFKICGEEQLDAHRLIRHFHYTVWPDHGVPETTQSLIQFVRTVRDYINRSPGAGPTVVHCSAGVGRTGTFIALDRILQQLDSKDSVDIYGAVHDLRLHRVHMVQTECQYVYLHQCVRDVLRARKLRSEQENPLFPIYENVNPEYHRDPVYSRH

As for `Cc1nc([C@H](Cc2ccc(NS(=O)(=O)O)cc2)NC(=O)OC(C)(C)C)cs1` [AA64], the half-maximal inhibitory concentration (IC50) in data set [1] was determined as 33 nM.
On the same count and under the same terms, under `COC(=O)Cc1csc([C@H](Cc2ccc(NS(=O)(=O)O)cc2)NC(=O)OC(C)(C)C)n1` [AA70, (S)-4-(2-(tert-Butoxycarbonyl)-2-(4-(2-(2-methoxy-2-oxoyethylamino)-2-oxoethyl)thiazole-2-yl)ethyl)phenylsulfamic acid] stands 132 nM.
In data set [2], `C[C@@H](O)[C@H]1C(=O)N2C(C(=O)O)=C(SCCN=CN)C[C@H]12` [IM, imipenem] displayed a survival of 81%.
Consider `CCC(CC)COC(=O)[C@H](C)N[P@](=O)(OC[C@H]1O[C@@](C#N)(c2ccc3c(N)ncnn23)[C@H](O)[C@@H]1O)Oc1ccccc1` [Remdesivir], for which the antiviral activity entry in data set [3] is “exhibits activity in cell culture and animal models”. Besides, the results for the “storage time of diluted solution” value in data set [4] (refrigerated (2° C. to 8° C.)) and in data set [4] (room temperature (20° C. to 25° C.)) were 24 h and “up to 4 hours”, respectively.

B1: ranibizumab (antibody, chains of the INN, looked up, V domains shown)
VH: EVQLVESGGGLVQPGGSLRLSCAASGYDFTHYGMNWVRQAPGKGLEWVGWINTYTGEPTYAADFKRRFTFSLDTSKSTAYLQMNSLRAEDTAVYYCAKYPYYYGTSHWYFDVWGQGTLVTVSS
VL: DIQLTQSPSSLSASVGDRVTITCSASQDISNYLNWYQQKPGKAPKVLIYFTSSLHSGVPSRFSGSGSGTDFTLTISSLQPEDFATYYCQQYSTVPWTFGQGTKVEIK
modifications: Fab
notes: anti-VEGF agent, standard-of-care intravitreal injection
B1: in data set [5], the UACR change entry is recorded as “increase”.
